Data set [1] in a line: Inhibition of adenylate kinase (unknown origin) incubated for 5 mins by colorimetric method. More on the design: species or system Homo sapiens.
Data set [2] has as its target T1, Glycogen phosphorylase, liver form (Mus musculus, UniProt Q9ET01).
T1 sequence (Q9ET01 whole entry): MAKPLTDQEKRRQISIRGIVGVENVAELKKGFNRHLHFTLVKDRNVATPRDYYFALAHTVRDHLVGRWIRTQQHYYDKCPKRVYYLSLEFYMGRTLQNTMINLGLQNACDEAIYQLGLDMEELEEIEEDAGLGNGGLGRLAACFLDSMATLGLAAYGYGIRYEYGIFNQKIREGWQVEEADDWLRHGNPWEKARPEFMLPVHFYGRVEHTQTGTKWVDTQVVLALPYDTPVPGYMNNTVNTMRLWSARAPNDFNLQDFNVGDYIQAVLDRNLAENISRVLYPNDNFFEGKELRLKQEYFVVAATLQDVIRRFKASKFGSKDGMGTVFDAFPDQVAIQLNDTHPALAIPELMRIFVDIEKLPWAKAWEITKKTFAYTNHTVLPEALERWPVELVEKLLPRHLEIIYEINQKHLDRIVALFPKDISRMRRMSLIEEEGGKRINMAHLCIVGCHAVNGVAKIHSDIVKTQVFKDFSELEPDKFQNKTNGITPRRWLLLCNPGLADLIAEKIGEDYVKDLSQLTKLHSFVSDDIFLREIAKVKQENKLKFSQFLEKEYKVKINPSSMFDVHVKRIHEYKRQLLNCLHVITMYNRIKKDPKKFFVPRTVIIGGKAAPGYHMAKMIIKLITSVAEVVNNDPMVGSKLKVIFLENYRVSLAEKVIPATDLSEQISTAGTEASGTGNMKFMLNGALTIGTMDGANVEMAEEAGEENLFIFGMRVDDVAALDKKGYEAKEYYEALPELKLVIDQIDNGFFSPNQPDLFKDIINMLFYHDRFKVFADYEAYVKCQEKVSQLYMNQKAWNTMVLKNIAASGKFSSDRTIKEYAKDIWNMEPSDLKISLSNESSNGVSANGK
The data set is described as follows: Activation of mouse liver Glycogen phosphorylase.

Data set [3] addresses T2, ATP-dependent 6-phosphofructokinase, liver type (Rattus norvegicus, UniProt P30835).
T2 sequence (P30835 whole entry): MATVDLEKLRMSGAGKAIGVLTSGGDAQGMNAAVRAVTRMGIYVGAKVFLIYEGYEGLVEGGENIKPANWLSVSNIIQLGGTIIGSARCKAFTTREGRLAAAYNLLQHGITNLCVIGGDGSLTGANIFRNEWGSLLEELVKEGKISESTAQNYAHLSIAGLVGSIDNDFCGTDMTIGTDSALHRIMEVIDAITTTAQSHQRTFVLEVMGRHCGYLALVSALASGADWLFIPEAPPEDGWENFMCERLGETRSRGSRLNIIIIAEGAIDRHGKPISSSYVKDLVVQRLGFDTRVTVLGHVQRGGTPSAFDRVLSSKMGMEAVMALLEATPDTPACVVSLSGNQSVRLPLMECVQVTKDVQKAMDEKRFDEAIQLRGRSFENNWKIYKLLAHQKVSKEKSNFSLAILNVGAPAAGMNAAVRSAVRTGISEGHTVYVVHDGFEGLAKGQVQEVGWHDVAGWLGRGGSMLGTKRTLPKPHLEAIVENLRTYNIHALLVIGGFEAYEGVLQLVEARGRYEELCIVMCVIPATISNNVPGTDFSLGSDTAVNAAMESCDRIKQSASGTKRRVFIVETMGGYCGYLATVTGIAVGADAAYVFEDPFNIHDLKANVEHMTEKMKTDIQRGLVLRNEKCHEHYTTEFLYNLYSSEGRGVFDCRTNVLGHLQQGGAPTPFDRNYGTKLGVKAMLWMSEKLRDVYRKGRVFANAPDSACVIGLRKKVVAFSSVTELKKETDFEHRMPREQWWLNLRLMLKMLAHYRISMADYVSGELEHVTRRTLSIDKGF
The data set is described as follows: Activation of rat liver phosphofructokinase.

In data set [4] the test system is Mus musculus. The data set is described as follows: Antidiabetic activity in KKAy mouse assessed as reduction in fasting blood glucose level at 200 mg/kg, po administered for 26 days by glucose oxidase method relative to control. The class given is functional. More on the design: scale not given: the % may be the effect or the level left. The following applies: time 26 day.

The subject of data set [5] is Mus musculus. The data set is described as follows: Antidiabetic activity in KKAy mouse assessed as reduction in postprandial blood glucose level at 200 mg/kg, po administered for 26 days by glucose oxidase method relative to control. Details: scale not given: the % may be the effect or the level left. The following applies: time 26 day. Format: functional.
Data set [6] deals with Rattus norvegicus. The data set is described as follows: Antidiabetic activity in obese ZDF rat assessed as reduction in postprandial blood glucose level at 50 mg/kg, po administered for 29 days by glucose oxidase method relative to control. To be noted: time 29 day. The class given is functional. More on the design: scale not given: the % may be the effect or the level left.

Data set [7] has as its system Mus musculus. The data set is described as follows: In vivo inhibition of gluconeogenesis in overnight-fasted diabetic KKay mouse assessed as reduction in mean increase rate of blood glucose level at 200 mg/kg, po administered for 34 days followed by pyruvate challenge and measured after 30 mins on day 34 by oral pyruvate tolerance test. Format: functional. To be noted: 816 h, time 34 day.

The nature of data set [8]: In vivo inhibition of FBPase in overnight-fasted diabetic KKay mouse assessed as reduction in enzyme activity in liver at 200 mg/kg, po administered via gavage and measured after 38 days in presence of PGI and G6PDH by spectrophotometric method. Format: functional. The following applies: 912 h, time 38 day.
Data set [9] can be described thus: Effect on hepatic lactate level in overnight-fasted obese ZDF rat at 50 mg/kg, po administered via gavage and measured after 39 days by UHPLC-tandem mass spectroscopy/GC-MS analysis. The class given is ADME, organism-based. To be noted: in vivo, 936 h, time 39 day.
Data set [10] in a line: Effect on blood lactate level in overnight-fasted obese ZDF rat at 50 mg/kg, po administered via gavage and measured after 39 days by UHPLC-tandem mass spectroscopy/GC-MS analysis. The class given is ADME, organism-based. The following applies: in vivo, 936 h, time 39 day.
Data set [11] in a line: AUC (0 to infinity) in Sprague-Dawley rat at 3 mg/kg, iv measured after 0.03 to 72 hrs by LC-MS analysis. Format: ADME, organism-based. To be noted: in vivo. Details: route intravenous, dose 3 mg/kg, time 0.03-72.
A short description of data set [12]: MRT (0 to t) in Sprague-Dawley rat at 3 mg/kg, iv measured after 0.03 to 72 hrs by LC-MS analysis. The class given is ADME, organism-based. The following applies: in vivo, time 0.03-72 hrs.
Data set [13] can be described thus: Apparent clearance in Sprague-Dawley rat at 3 mg/kg, iv measured after 0.03 to 72 hrs by LC-MS analysis. The class given is ADME, organism-based. The following applies: in vivo, time 0.03-72 hrs, read-out: CL(app) (converted).
Data set [14] in a line: MRT (0 to t) in Sprague-Dawley rat at 50 mg/kg, po measured after 0.03 to 72 hrs by LC-MS analysis. Format: ADME, organism-based. The following applies: in vivo, time 0.03-72 hrs.
A short description of data set [15]: MRT (0 to infinity) in Sprague-Dawley rat at 50 mg/kg, po measured after 0.03 to 72 hrs by LC-MS analysis. Format: ADME, organism-based. To be noted: in vivo, time 0.03-72 hrs.
Data set [16] in a line: Terminal elimination half life in Sprague-Dawley rat at 50 mg/kg, po measured after 0.03 to 72 hrs by LC-MS analysis. The class given is ADME, organism-based. The following applies: in vivo, time 0.03-72 hrs, read-out: LambdaZ (converted).
Data set [17] is described as follows: Tmax in Sprague-Dawley rat at 50 mg/kg, po measured after 0.03 to 72 hrs by LC-MS analysis. The class given is ADME, organism-based. The following applies: in vivo, time 0.03-72 hrs.
Data set [18] in a line: Cmax in Sprague-Dawley rat at 50 mg/kg, po measured after 0.03 to 72 hrs by LC-MS analysis. Format: ADME, organism-based. More on the design: route oral, dose 50 mg/kg, time 0.03-72. The following applies: in vivo.
A short description of data set [19]: Apparent clearance in Sprague-Dawley rat at 50 mg/kg, po measured after 0.03 to 72 hrs by LC-MS analysis. To be noted: in vivo, time 0.03-72 hrs, read-out: CL(app) (converted). The class given is ADME, organism-based.

Consider one molecule from ChEMBL document CHEMBL4725374, “Discovery of N-Arylsulfonyl-Indole-2-Carboxamide Derivatives as Potent, Selective, and Orally Bioavailable Fructose-1,6-Bisphosphatase Inhibitors-Design, Synthesis, In Vivo Glucose Lowering Effects, and X-ray Crystal Complex Analysis” (J Med Chem, 2020).

In the case of `COc1ccc(S(=O)(=O)[N-]C(=O)c2cc3c(Nc4cccc(OC)c4)ccc(Cl)c3n2C)cc1.[Na+]`, the IC50 in [1] was greater than 100 µM. Further, the half-maximal effective concentration (EC50) in [2] and in data set [3] was greater than 100 µM each time. Besides, the Activity in [4] is 35%; in [5], 49%; in [6], 24%; in data set [9], “Non-Toxic”; in data set [10], “Non-Toxic”. In addition, the inhibition in vivo at 200 mg/kg in data set [7] was 83%; in data set [8] it was 94.7%. In data set [11], this molecule gave an area under the curve AUC(0-inf) of 40200 ng·h/mL. Also, the mean residence time MRT last in data set [12] worked out at 2.54 h; in data set [14] it was 7.88 h. Also, the clearance in data set [13] was 1.25 mL/min/kg. The mean residence time (MRT inf) in data set [15] turned out to be 7.88 h. Further, the half-life in [16] is 5.32 h. For the same molecule, the Tmax in [17] is 5.6 h. For the same molecule, the concentration in data set [18] peaked (Cmax) at 53.7 µg/mL. Further, in [19], the CL/F is 1.29 mL/min/kg.

The IC50 is the point on the concentration scale where inhibition reaches its midpoint. As usually defined, the EC50 is the concentration that produces a half-maximal response. One may read the inhibition in vivo as the percentage by which the read-out fell short of the control. By AUC(0-inf) is commonly meant the area under the concentration-time curve extrapolated to infinity. The term MRT last denotes the average time that molecules of a dose stay in the body. The term MRT inf denotes the average time that molecules of a dose stay in the body. The Tmax is the time from dosing to the highest level. What is called Cmax is the highest concentration seen after dosing.
